Data set [1] deals with collagen induced arthritis (CIA). The class given is in vivo, DBA/1J mice. The note with it: single IV dose on day 22, observed to day 58, 6 mice/group.
The test system is the same in data set [2]. Description: Efficacy against collagen induced arthritis, subcutaneous treatment. The class given is in vivo, DBA/1J mice. The conditions noted are these: 5.0 nmol/animal SC on day 22 and 34; between days 34 and 40.
The subject of data set [3] is systemic arterial pressure. The experiment in a line: Systemic arterial pressure. The class given is in vivo, CIA mice. The conditions noted are these: single IV injection, regardless of dose.
For data set [4] the following is noted: cited from earlier work.

Like-named read-outs stand apart in the source and are kept apart here.

As to “Vasoactive intestinal peptide [free VIP]”, the “paw thickness and clinical arthritis score” value in data set [1] (0.5 nmol/animal) and in data set [1] (1.0 nmol/animal) was “did not show any therapeutic efficacy” in each case. In data set [2], the “duration of disease suppression after cessation of treatment” value is “about a week”. In addition, the “time to full recovery of SAP to the norm” value in data set [3] was “approximately one hour”. In addition, the in vivo half-life result in data set [4] is “few minutes”.
